Assay results as given in patent US20160272645A1, “Heterocyclic Compounds and Methods of Use” (MEDIVATION TECHNOLOGIES, INC., priority 2013, published 2016).

Columns and labels:
[1] = test system: CD69+B220+ cells (mouse spleen cells); experiment: B cell activation assay (IgD-stimulated CD69 on B220+ spleen cells, FACS); assay type: cell-based; settings: IgD 3 μg/mL 4 h
TEC = target: T1, TEC (Homo sapiens, UniProt P42680); experiment: TEC kinase profiling (BTK protocol); assay type: biochemical; settings: compound 0.3 μM; read-out: TEC @ 0.3 μM (% Inh)
T1 construct: purchased Reaction Biology Corporation
T1 sequence (P42680 1-631): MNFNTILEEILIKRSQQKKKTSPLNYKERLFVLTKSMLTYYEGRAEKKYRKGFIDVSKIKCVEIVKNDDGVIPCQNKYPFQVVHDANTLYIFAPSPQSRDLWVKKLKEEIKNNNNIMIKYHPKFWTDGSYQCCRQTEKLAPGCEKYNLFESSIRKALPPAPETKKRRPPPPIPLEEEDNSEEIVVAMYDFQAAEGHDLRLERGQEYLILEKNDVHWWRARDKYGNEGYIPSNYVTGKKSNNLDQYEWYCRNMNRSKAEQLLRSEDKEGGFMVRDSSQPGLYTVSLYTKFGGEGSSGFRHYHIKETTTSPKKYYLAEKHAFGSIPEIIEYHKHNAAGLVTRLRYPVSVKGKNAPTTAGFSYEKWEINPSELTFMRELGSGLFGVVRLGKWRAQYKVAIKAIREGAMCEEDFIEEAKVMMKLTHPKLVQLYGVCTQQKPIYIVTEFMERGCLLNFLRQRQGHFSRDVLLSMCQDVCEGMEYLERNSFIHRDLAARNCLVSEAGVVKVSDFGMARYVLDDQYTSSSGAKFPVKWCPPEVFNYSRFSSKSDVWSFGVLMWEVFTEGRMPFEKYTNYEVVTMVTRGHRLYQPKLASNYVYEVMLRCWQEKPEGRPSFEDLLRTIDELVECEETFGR
Method: (§1) BTK assay: In vitro profiling protein kinases was performed using the “HotSpot” assay platform. Briefly, specific kinase/substrate pairs along with required cofactors were prepared in reaction buffer. Compounds were prepared as 10 mM stock solutions in DMSO. Compounds were delivered into the reaction, followed 15-20 minutes later by addition of a mixture of ATP (Sigma, St. Louis Mo.) and ^33P ATP (Perkin Elmer, Waltham Mass.) to a final concentration of 10 μM. Reactions were carried out at RT for 120 min, followed by spotting of the reactions onto P81 ion exchange filter paper (Whatman Inc., Piscataway, N.J.). Unbound phosphate was removed by extensive washing of filters in 0.75% Phosphoric acid. […] ICso values and curve fits were obtained using Prism (GraphPad Software). Buffer Conditions: 20 mM Hepes (pH 7.5), 10 mM MgCl2, 1 mM EGTA, 0.02% Brij35, 0.02 mg/mL BSA, 0.1 mM Na3VO4, 2 mM DTT, 1% DMSO.
(§2) Compounds of the invention were profiled in a 10 dose IC50 panel against BMX/ETK, ITK and TEC kinases, provided by Reaction Biology Corporation, applied to the BTK protocol provided in Example B1.

ITK = target: T2, ITK (Homo sapiens, UniProt Q08881); experiment: ITK kinase profiling (BTK protocol); assay type: biochemical; settings: compound 0.3 μM; read-out: ITK @ 0.3 μM (% Inh)
T2 construct: purchased Reaction Biology Corporation
T2 sequence (Q08881 1-620): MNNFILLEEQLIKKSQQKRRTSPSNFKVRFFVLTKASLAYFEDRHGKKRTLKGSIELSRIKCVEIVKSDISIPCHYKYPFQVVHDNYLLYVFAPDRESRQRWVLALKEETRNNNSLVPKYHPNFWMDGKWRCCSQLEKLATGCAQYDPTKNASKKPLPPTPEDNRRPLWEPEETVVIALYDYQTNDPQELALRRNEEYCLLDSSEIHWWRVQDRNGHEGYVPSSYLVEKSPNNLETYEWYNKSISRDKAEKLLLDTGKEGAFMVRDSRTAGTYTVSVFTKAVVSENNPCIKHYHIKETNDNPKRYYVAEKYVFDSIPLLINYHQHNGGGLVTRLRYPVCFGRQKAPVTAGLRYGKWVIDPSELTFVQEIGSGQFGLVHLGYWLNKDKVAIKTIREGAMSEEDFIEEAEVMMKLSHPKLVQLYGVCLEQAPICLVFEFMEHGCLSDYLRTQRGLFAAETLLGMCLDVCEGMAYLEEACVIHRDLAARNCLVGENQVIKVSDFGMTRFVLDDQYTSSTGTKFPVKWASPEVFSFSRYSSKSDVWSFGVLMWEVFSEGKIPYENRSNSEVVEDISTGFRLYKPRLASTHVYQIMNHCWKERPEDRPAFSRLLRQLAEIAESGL
Method: as §1, §2

| IC50 [1] [µM] | inhibition at 0.3 µM (TEC) [%] | inhibition at 0.3 µM (ITK) [%] | SMILES |
| --- | --- | --- | --- |
| – | 48.8 | 10.2 | C=CC(=O)N(CCn1nc(-c2cc(O)cc(F)c2)c2c(N)ncnc21)Cc1ccccc1 [Compound 5, N-(2-(4-amino-3-(3-fluoro-5-hydroxyphenyl)-1H-pyrazolo[3,4-d]pyrimidin-1-yl)ethyl)-N-benzylacrylamide] |
| – | 66.1 | 30.5 | C=CC(=O)N(CCn1nc(-c2cc(O)cc(F)c2)c2c(N)ncnc21)Cc1ccc(F)cc1 [Compound 10, N-{2-[4-amino-3-(3-fluoro-5-hydroxyphenyl)-1H-pyrazolo [3,4-d]pyrimidin-1-yl]ethyl}-N-[(4-fluorophenyl)methyl]prop-2-enamide] |
| – | 68.7 | 34.7 | C=CC(=O)N(CCn1nc(-c2cc(O)cc(F)c2)c2c(N)ncnc21)Cc1ccccc1F [Compound 11, N-[2-[4-amino-3-(3-fluoro-5-hydroxy-phenyl)pyrazolo[3,4-d]pyrimidin-1-yl]ethyl]-N-[(2-fluorophenyl)methyl]prop-2-enamide] |

The next lines start with the compound.

| SMILES | IC50 [1] [µM] | inhibition at 0.3 µM (TEC) [%] | inhibition at 0.3 µM (ITK) [%] |
| --- | --- | --- | --- |
| Nc1ncnc2c1c(-c1cc(O)cc(F)c1)nn2CCNc1ccccc1 [Compound 1, 3-(4-amino-1-(2-(phenylamino)ethyl)-1H-pyrazolo [3,4-d]pyrimidin-3-yl)-5-fluorophenol] | 0.0551 ± 0.0383 | -1.13 | 0.06 |
| C=CC(=O)N(CCn1nc(-c2cc(O)cc(F)c2)c2c(N)ncnc21)c1ccccc1 [Compound 2, N-(2-(4-amino-3-(3-fluoro-5-hydroxyphenyl)-1H-pyrazolo[3,4-d]pyrimidin-1-yl)ethyl)-N-phenylacrylamide] | – | 72.6 | 50.7 |
| C=CC(=O)N(CCn1nc(-c2cc(O)cc(F)c2)c2c(N)ncnc21)Cc1ccc(Cl)cc1 [Compound 12, N-{2-[4-amino-3-(3-fluoro-5-hydroxyphenyl)-1H-pyrazolo[3,4-d]pyrimidin-1-yl]ethyl}-N-[(4-chlorophenyl)methyl]prop-2-enamide] | – | 71.6 | 62.5 |
| C=CC(=O)N(CCn1nc(-c2cc(O)c(F)c(F)c2)c2c(N)ncnc21)Cc1ccc(Cl)cc1 [Compound 16, N-{2-[4-amino-3-(3,4-difluoro-5-hydroxyphenyl)-1H-pyrazolo[3,4-d]pyrimidin-1-yl]ethyl}-N-[(4-chlorophenyl)methyl]prop-2-enamide] | – | 75 | 8.93 |
